Patent US5904929A, “Acylated cyclodextrin-containing pharmaceutical composition” (Janssen Pharmaceutica, N.V., priority 1997, dated 1999)

How the values were obtained:
[1] = J. Pharm. Pharmacol. 1994, 46: 714-717; cited from earlier work
[2] = Detaching force of films, probe tack tester (Example 1); assay type: physicochemical; details: films on polyethylene terephthalate; compared with HPC, HPMC and PHEMA; probe tack tester (FIG. 1)
Description: Pervaleryl-β-cyclodextrin (TV-β-CyD)-containing absolute ethanol solution (concentration: 150 mg/ml) was added dropwise onto a backing membrane (polyethylene terephthalate film) using a microsyringe, and allowed to stand at 25° C. for 24 hours to evaporate ethanol, whereby films of TV-β-CyD having adhesion were obtained.
The detaching force on the films of TV-β-CyD and on the films derived from various hydrophilic macromolecules (hydroxypropylcellulose (HPC), hydroxypropyl methylcellulose (HPMC) and polyhydroxyethyl methacrylate (PHEMA)) was measured using a probe tack tester (produced by Rigaku Kogyo Co.). The films of hydrophilic macromolecules were prepared as described with respect to TV-β-CyD.

[3] = test system: cutis of the back of female hairless mice; assay: Cutis irritativeness, histology of back skin of hairless mice (Example 2); assay type: in vivo; details: 16 hours, light microscopy
Description: There was stuck 150 mg of TV-β-CyD, in the shape of a circle with a diameter of […], on the back of female hairless mice at the age of around 7 weeks (weight: […]), and 16 hours later, the cutis was extirpated. The extirpated cutis was fixed with 20% neutrally-buffered formalin solution and embedded in paraffin according to a usual manner, and tissue sections were prepared using a microtome. These sections were double stained with haematoxylin and Eosine, and observed by a light microscope. Untreated cutis was used as control. Moreover, a commercially available adhesive tape for patch test was applied on the same mice under the same condition, and, thereafter, the cutis tissue of the applied portion was extirpated for comparison.

SMILES	drug release rate, compared with other acylated β-CyDs [1]	adhesion (detaching force), in comparison with hydrophilic macromolecules [2]	peeling of corneum ([3]; 150 mg, compared with commercially available adhesive tape for patch test)	abnormality such as inflammatory cellular infiltration ([3]; other sites (control))
CCCC(=O)OC[C@H]1O[C@@H]2O[C@H]3[C@H](OC(=O)CCC)[C@@H](OC(=O)CCC)[C@@H](O[C@H]4[C@H](OC(=O)CCC)[C@@H](OC(=O)CCC)[C@@H](O[C@H]5[C@H](OC(=O)CCC)[C@@H](OC(=O)CCC)[C@@H](O[C@H]6[C@H](OC(=O)CCC)[C@@H](OC(=O)CCC)[C@@H](O[C@H]7[C@H](OC(=O)CCC)[C@@H](OC(=O)CCC)[C@@H](O[C@H]8[C@H](OC(=O)CCC)[C@@H](OC(=O)CCC)[C@@H](O[C@H]1[C@H](OC(=O)CCC)[C@H]2OC(=O)CCC)O[C@@H]8COC(=O)CCC)O[C@@H]7COC(=O)CCC)O[C@@H]6COC(=O)CCC)O[C@@H]5COC(=O)CCC)O[C@@H]4COC(=O)CCC)O[C@@H]3COC(=O)CCC [TB-β-CyD, perbutanoyl-β-cyclodextrin]	remarkably retards the drug release rate			
CCCCC(=O)OC[C@H]1O[C@@H]2O[C@H]3[C@H](OC(=O)CCCC)[C@@H](OC(=O)CCCC)[C@@H](O[C@H]4[C@H](OC(=O)CCCC)[C@@H](OC(=O)CCCC)[C@@H](O[C@H]5[C@H](OC(=O)CCCC)[C@@H](OC(=O)CCCC)[C@@H](O[C@H]6[C@H](OC(=O)CCCC)[C@@H](OC(=O)CCCC)[C@@H](O[C@H]7[C@H](OC(=O)CCCC)[C@@H](OC(=O)CCCC)[C@@H](O[C@H]8[C@H](OC(=O)CCCC)[C@@H](OC(=O)CCCC)[C@@H](O[C@H]1[C@H](OC(=O)CCCC)[C@H]2OC(=O)CCCC)O[C@@H]8COC(=O)CCCC)O[C@@H]7COC(=O)CCCC)O[C@@H]6COC(=O)CCCC)O[C@@H]5COC(=O)CCCC)O[C@@H]4COC(=O)CCCC)O[C@@H]3COC(=O)CCCC [TV-β-CyD, Pervaleryl-β-cyclodextrin]		strongest in adhesion	peeling of corneum in the same degree as in the case of the commercially available adhesive tape	no abnormality such as inflammatory cellular infiltration
